A short description of data set [1]: Amount of metabolites in the microsomal medium after 90 min incubation of BTCP (500 uM). It counts as ADME, Microsome. Particulars: microsomes, 1.5 h.
The target of data set [2] is Sodium-dependent dopamine transporter (Rattus norvegicus, UniProt P23977). Briefly: Inhibitory activity of compound against [3H]BTCP binding to neuronal dopamine transporter of rat striatal membrane.
Sequence of Sodium-dependent dopamine transporter (P23977 whole entry): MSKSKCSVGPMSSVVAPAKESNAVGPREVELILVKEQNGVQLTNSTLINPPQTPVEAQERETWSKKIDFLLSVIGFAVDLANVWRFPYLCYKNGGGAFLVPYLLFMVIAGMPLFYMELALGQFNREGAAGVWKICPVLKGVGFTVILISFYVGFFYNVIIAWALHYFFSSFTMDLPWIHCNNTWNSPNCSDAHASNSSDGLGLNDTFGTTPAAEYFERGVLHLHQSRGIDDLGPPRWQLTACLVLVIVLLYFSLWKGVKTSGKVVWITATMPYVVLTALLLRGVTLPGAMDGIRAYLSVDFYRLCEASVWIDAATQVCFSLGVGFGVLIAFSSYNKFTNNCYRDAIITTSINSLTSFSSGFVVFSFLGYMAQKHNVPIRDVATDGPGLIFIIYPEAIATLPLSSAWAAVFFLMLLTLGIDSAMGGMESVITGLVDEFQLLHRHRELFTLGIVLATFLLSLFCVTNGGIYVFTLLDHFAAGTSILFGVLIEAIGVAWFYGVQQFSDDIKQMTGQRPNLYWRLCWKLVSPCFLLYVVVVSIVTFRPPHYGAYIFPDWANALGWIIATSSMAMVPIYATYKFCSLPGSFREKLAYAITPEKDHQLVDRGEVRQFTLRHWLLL

For `O[C@@H]1CCC[C@@](c2cc3ccccc3s2)(N2CCCCC2)C1`, in data set [1], the Amount came out at 4 pM.
The same measure, in the same setting: to `OC1CCN(C2(c3cc4ccccc4s3)CCCCC2)CC1` belongs 615 pmol; to `OC1(c2cc3ccccc3s2)CCCCC1`, 141 pmol.
As for `OC1CCCN(C2(c3cc4ccccc4s3)CCCCC2)C1` (stereo not given), in data set [1], the Amount was 147 pmol. Besides, the IC50 in data set [2] worked out at 1.75 nM.

The values are drawn from ChEMBL document CHEMBL1130256, “1-[1-2-Benzo[b]thiopheneyl)cyclohexyl]piperidine hydrochloride (BTCP) yields two active primary metabolites in vitro: synthesis, identification from rat liver microsome extracts, and affinity for the neuronal dopamine transporter” (J Med Chem, 1997).
